Test results from publication PMC10952572, “Improved PIEZO1 agonism through 4‐benzoic acid modification of Yoda1” (British Journal of Pharmacology, 2023).

How the values were obtained:
mPIEZO1 = target: T1, mPIEZO1 (Mus musculus, UniProt E2JF22); assay: Manual whole-cell patch clamp on mPIEZO1-TREx cells; type: cell-based; settings: 10 μM, ramp −100 to +100 mV
T1 construct: expressed in transfected cells
Experimental: For manual patch clamp, macroscopic transmembrane ionic currents of mPIEZO1 HEK‐TREx cells (or control HEK‐TREx cells) were recorded using the standard whole‐cell configuration for patch clamp in voltage‐clamp mode. For studies of HEK 293 cells overexpressing PIEZO2 (or control HEK 293 cells), the outside‐out patch configuration was used in voltage‐clamp mode. All recordings were made using an Axopatch 200B amplifier (Axon Instruments, Inc., USA) equipped with Digidata 1550B hosted by a PC running pClamp 10.7 software (Molecular Devices, USA) at room temperature. The cells were maintained during the experiment in an external salt buffer solution (SBS) of the following composition: 135 mM NaCl, 5 mM KCl, 1.5 mM CaCl2, 1.2 mM MgCl2, 8 mM D‐glucose and 10 mM HEPES (titrated to pH 7.4 with NaOH). […] For outside‐out experiments, Na2ATP and Na2GTP were omitted. For whole‐cell experiments, cells were held at 0 mV and current amplitude was monitored by application of ramp voltage protocol from −100 to +100 mV at 10 s intervals. Currents were measured at −100 and +100 mV. Test compounds were applied in the external solution using a bath perfusion system. SBS flow was applied to the cells for 1 min before the addition of compounds. […] Data were analysed and plotted using pClamp 10.7 and Microcal Origin 2018 (Microcal Software, USA).

[1] = target: T2, human adenosine A2A receptors (Homo sapiens, UniProt P29274); assay: Eurofins Hit Profiling Screen PP70: adenosine A2A receptor binding; settings: 5 μM
T2 construct: host or cells: HEK 293 membranes
Experimental: (§1) These experiments were performed by Eurofins Scientific, and the methods below are from this company's information. Membrane protein/membrane amounts may have varied, and the concentrations used were adjusted as necessary. KC289 was tested at 5 μM.
This assay measured binding of [^3H]CGS‐21680 to human adenosine A2A receptors. HEK 293 cells stably transfected with a plasmid encoding the human adenosine A2A receptor were used to prepare membranes in modified Tris–HCl pH 7.4 buffer using standard techniques. A 15 μg aliquot of membrane was incubated with […] [^3H]CGS‐21680 for 90 min at 25°C. Non‐specific binding was estimated in the presence of 50 μM NECA. Membranes were filtered and washed three times, and the filters were counted to determine [^3H]CGS‐21680 specifically bound.

[2] = test system: 30 proteins including ion channels and receptors; assay: Eurofins Hit Profiling Screen PP70: remaining targets; type: binding; settings: 5 μM; targets other than A2A and EP4
Experimental: as §1

T1 sequence (E2JF22 whole entry): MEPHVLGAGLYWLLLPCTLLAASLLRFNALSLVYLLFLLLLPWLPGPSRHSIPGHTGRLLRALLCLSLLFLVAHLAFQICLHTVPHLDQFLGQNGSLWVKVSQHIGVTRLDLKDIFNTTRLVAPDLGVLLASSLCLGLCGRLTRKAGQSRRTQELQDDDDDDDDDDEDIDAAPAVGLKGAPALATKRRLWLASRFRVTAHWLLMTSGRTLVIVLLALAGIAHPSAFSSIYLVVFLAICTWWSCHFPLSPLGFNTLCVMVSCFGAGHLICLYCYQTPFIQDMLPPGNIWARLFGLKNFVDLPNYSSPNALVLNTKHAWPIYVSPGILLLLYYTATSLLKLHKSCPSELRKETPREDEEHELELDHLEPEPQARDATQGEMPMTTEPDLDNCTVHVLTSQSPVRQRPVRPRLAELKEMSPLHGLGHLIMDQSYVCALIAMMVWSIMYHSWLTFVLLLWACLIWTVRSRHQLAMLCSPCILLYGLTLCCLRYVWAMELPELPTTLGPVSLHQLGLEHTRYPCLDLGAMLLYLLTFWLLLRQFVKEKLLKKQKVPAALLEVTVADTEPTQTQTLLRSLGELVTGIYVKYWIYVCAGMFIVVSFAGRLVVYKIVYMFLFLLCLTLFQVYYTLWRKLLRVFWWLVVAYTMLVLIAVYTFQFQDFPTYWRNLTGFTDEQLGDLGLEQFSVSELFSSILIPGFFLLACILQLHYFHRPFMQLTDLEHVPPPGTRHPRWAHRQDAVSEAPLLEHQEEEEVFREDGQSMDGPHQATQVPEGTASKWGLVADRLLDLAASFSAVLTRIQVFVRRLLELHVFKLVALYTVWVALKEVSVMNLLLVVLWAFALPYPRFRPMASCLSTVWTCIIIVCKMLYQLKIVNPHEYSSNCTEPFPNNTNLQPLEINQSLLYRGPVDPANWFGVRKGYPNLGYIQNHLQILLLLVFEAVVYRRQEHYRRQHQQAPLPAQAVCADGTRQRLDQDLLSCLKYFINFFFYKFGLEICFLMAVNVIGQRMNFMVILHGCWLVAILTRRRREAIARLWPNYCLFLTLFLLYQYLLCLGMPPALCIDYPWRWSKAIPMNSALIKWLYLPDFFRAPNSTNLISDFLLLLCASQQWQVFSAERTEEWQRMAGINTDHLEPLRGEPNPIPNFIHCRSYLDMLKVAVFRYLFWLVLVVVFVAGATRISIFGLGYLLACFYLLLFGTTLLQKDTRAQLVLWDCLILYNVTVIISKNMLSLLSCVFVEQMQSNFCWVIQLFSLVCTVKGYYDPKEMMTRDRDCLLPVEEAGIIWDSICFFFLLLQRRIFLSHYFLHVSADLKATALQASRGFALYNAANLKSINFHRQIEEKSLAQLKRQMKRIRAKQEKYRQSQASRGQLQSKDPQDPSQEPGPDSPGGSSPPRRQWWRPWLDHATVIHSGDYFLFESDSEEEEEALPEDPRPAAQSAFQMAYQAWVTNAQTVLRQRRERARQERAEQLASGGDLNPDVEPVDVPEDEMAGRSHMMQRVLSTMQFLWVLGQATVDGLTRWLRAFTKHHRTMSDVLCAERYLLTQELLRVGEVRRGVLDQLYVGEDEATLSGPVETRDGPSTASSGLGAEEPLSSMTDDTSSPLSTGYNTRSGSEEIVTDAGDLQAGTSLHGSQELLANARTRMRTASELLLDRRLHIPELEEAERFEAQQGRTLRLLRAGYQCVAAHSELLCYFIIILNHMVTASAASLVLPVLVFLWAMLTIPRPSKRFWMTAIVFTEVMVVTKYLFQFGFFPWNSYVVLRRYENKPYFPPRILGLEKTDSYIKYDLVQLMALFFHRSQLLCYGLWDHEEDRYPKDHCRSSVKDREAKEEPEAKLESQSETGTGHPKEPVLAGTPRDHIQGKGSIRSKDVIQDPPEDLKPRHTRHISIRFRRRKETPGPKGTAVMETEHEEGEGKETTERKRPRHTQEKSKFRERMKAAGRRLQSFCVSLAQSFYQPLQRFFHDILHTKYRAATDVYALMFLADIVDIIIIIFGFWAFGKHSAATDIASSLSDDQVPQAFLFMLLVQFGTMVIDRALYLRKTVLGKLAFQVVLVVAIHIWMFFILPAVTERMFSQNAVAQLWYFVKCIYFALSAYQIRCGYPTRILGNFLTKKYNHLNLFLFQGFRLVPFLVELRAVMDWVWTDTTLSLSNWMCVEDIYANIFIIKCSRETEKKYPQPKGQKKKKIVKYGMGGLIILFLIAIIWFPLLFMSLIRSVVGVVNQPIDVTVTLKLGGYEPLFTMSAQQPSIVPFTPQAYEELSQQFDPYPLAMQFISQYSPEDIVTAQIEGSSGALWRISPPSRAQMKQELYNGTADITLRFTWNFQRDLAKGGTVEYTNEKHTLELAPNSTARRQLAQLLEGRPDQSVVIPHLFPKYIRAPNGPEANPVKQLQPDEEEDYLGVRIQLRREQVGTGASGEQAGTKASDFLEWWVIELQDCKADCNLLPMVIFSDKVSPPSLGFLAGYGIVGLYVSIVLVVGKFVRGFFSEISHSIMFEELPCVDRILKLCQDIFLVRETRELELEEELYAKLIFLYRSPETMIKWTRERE
T2 sequence (P29274 whole entry): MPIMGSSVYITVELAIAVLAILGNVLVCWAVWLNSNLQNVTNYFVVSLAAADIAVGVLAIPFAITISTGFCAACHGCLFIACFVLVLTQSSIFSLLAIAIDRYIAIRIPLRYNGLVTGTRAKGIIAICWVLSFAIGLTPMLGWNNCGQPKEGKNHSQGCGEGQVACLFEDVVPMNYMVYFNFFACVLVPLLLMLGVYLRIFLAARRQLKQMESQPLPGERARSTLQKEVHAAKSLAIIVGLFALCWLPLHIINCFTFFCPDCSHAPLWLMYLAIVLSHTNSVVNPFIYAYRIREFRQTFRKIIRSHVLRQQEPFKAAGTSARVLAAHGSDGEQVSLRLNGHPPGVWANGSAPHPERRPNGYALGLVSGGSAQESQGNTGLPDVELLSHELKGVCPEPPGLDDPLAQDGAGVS

| Compound | Whole-cell current (mPIEZO1) | Binding to adenosine A2A receptors [1] | Binding to the other proteins of the screen [2] |
| --- | --- | --- | --- |
| O=C(O)c1ccc(-c2nnc(SCc3c(Cl)cccc3Cl)s2)cc1 [KC159] | increases current |  |  |
| O=C([O-])c1ccc(-c2nnc(SCc3c(Cl)cccc3Cl)s2)cc1.[K+] [KC289] |  | modest interaction | little or no binding |
